Test results from ChEMBL document CHEMBL1201862, “PubChem BioAssay data set” (2004).
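1) Cells in 96-well plates. 2) Compound, 48 h, 5 concentrations. 3) Linear interpolation between surrounding doses. 4) Unreached endpoint = highest concentration. GI50: concentration for 50% inhibition of growth.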 Calls of active or inactive are those of the source. Rule as the data show it: active = GI50 up to about 1.1 µM and inactive = higher.

Key:
Test in all cases: DTP human tumour cell line panel, 48 h
Malme-3M = system: Malme-3M
OVCAR-8 = system: OVCAR-8
A498 = system: A498
SF-539 = system: SF-539
UO-31 = system: UO-31
SF-295 = system: SF-295
NCI-H226 = system: NCI-H226
HCT-116 = system: HCT-116
OVCAR-5 = system: OVCAR-5
ACHN = system: ACHN
OVCAR-3 = system: OVCAR-3
786-0 = system: 786-0
UACC-257 = system: UACC-257
RPMI-8226 = system: RPMI-8226
RXF 393 = system: RXF 393
CAKI-1 = system: CAKI-1

Measured: GI50

CCn1cc(C(=O)O)c(=O)c2cc(F)c(N3CCNCC3)nc21 [ENOXACIN]
inactive: Malme-3M 74.1 µM | OVCAR-8 > 100 µM | A498 > 100 µM | SF-539 > 100 µM | UO-31 > 100 µM | SF-295 > 100 µM | NCI-H226 > 100 µM | HCT-116 65.6 µM | OVCAR-5 > 100 µM | ACHN > 100 µM | OVCAR-3 > 100 µM | 786-0 > 100 µM | UACC-257 > 100 µM | RPMI-8226 > 100 µM

O=C1c2ccccc2S[C@@H](O)[C@@H]2CCCN12
inactive: Malme-3M > 100 µM | OVCAR-8 > 100 µM | SF-539 > 100 µM | UO-31 > 100 µM | SF-295 > 100 µM | RXF 393 > 100 µM | HCT-116 > 100 µM | OVCAR-5 > 100 µM | ACHN > 100 µM | OVCAR-3 > 100 µM | 786-0 > 100 µM | UACC-257 > 100 µM | RPMI-8226 > 100 µM

COC(=O)NN=C1C(C)(C)C(=NNC(=O)OC)C1(C)C
inactive: Malme-3M > 100 µM | OVCAR-8 > 41.2 µM | A498 > 100 µM | SF-539 > 100 µM | UO-31 > 100 µM | SF-295 > 100 µM | NCI-H226 > 100 µM | RXF 393 > 100 µM | CAKI-1 > 85.1 µM | HCT-116 > 45.5 µM | OVCAR-5 > 100 µM | ACHN > 100 µM | OVCAR-3 > 100 µM | 786-0 > 100 µM | UACC-257 > 100 µM

COC(=O)C1=CNC(C(=O)OC)=NN1
inactive: Malme-3M > 100 µM | OVCAR-8 > 100 µM | SF-539 > 100 µM | UO-31 > 100 µM | SF-295 > 100 µM | NCI-H226 > 100 µM | RXF 393 > 100 µM | CAKI-1 > 100 µM | HCT-116 > 100 µM | ACHN > 100 µM | OVCAR-3 > 100 µM | 786-0 > 100 µM | UACC-257 > 100 µM | RPMI-8226 > 100 µM

CC(C)C(Sc1nc(-c2ccccc2)c(-c2ccccc2)[nH]1)C(=O)NNC(=S)Nc1ccccc1 (stereo not given)
inactive: Malme-3M 16.7 µM | OVCAR-8 21.5 µM | A498 26 µM | SF-539 21.4 µM | UO-31 17.8 µM | SF-295 16 µM | NCI-H226 16.7 µM | HCT-116 22.9 µM | OVCAR-5 16.7 µM | ACHN 25.1 µM | OVCAR-3 13.1 µM | 786-0 18.2 µM | UACC-257 16.9 µM | RPMI-8226 10.9 µM

CCN(CC)C(=O)c1c(N2CCOCC2)cc(N(CC)CC)oc1=O
inactive: Malme-3M > 100 µM | OVCAR-8 > 100 µM | A498 > 100 µM | SF-539 > 100 µM | UO-31 > 100 µM | SF-295 > 100 µM | NCI-H226 > 100 µM | RXF 393 > 100 µM | HCT-116 > 100 µM | ACHN > 100 µM | OVCAR-3 > 100 µM | 786-0 > 100 µM | UACC-257 > 100 µM | RPMI-8226 > 100 µM

Clc1ccc(C[P+]2(c3ccccc3)CCCCC2)cc1.[O-][Cl+3]([O-])([O-])[O-]
inactive: Malme-3M 58.5 µM | OVCAR-8 > 100 µM | A498 > 100 µM | SF-539 > 100 µM | UO-31 > 100 µM | SF-295 > 100 µM | NCI-H226 > 100 µM | RXF 393 > 100 µM | HCT-116 60.1 µM | OVCAR-5 > 100 µM | ACHN > 100 µM | OVCAR-3 44.7 µM | 786-0 > 100 µM | UACC-257 28.2 µM | RPMI-8226 32.2 µM

CC1=C(C(=O)Nc2cc(=O)n(C)c(=O)n2C)C(c2ccc([N+](=O)[O-])cc2)C(C(=O)Nc2cc(=O)n(C)c(=O)n2C)=C(C)N1
inactive: Malme-3M > 100 µM | OVCAR-8 68.1 µM | A498 > 100 µM | SF-539 > 100 µM | UO-31 21.8 µM | SF-295 > 100 µM | NCI-H226 49.3 µM | RXF 393 > 100 µM | HCT-116 74.3 µM | OVCAR-5 > 100 µM | ACHN 68.2 µM | OVCAR-3 > 100 µM | 786-0 84.9 µM | UACC-257 86.7 µM | RPMI-8226 59.6 µM

CCC1CC2C(=O)N(c3ccccc3)C(=O)C2c2[nH]c3ccccc3c21 (stereo not given)
inactive: Malme-3M 14.1 µM | OVCAR-8 12.2 µM | A498 25.4 µM | UO-31 31.6 µM | SF-295 7.19 µM | NCI-H226 11.4 µM | RXF 393 21.5 µM | OVCAR-5 > 100 µM | ACHN 20.2 µM | OVCAR-3 15.7 µM | 786-0 18.9 µM | RPMI-8226 22.5 µM

C/C(=N\NC(=S)N(C)C)c1ncc[nH]1
inactive: Malme-3M 3.36 µM | OVCAR-8 3.94 µM | A498 3.94 µM | SF-539 2.77 µM | UO-31 2.1 µM | SF-295 4.28 µM | RXF 393 6 µM | HCT-116 3.56 µM | OVCAR-5 2.55 µM | ACHN 2.45 µM | OVCAR-3 3.36 µM | 786-0 2.18 µM | UACC-257 2.92 µM | RPMI-8226 4.2 µM
